From ChEMBL document CHEMBL1201862, “PubChem BioAssay data set” (2004)
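Compound exposure: 48 hours, 5 concentrations, 96-well plates. GI50 = concentration required for 50% inhibition of growth.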 Active and inactive are the calls of the source. No stated cut-off is given here; in the data, active = GI50 up to about 1.1 µM and inactive = higher.

Assays:
Assay in all cases: DTP human tumour cell line panel, 48 h
[1] = system: SF-268
[2] = system: SN12C
[3] = system: SNB-75
[4] = system: HCC 2998
[5] = system: SK-MEL-2
[6] = system: LOX IMVI
[7] = system: SK-MEL-5
[8] = system: COLO 205
[9] = system: RPMI-8226
[10] = system: SK-OV-3
[11] = system: TK-10
[12] = system: IGROV-1
[13] = system: CCRF-CEM
[14] = system: Malme-3M
[15] = system: SW-620
[16] = system: UACC-257
[17] = system: RXF 393

Measured: GI50

O=C(O)CNc1c2ccccc2[n+]([O-])c2ccccc12
inactive: [1] > 100 µM | [2] > 100 µM | [3] 76.2 µM | [4] > 100 µM | [5] > 100 µM | [6] 78.7 µM | [7] 45.5 µM | [8] 72.3 µM | [9] 31.8 µM | [10] > 100 µM | [11] > 100 µM | [12] > 100 µM | [13] 21.2 µM | [14] 61.4 µM | [15] > 100 µM | [16] > 100 µM

COc1ccc(C(=O)C(C(=O)C(=O)Nc2nc3ccc(OC)cc3s2)c2ccc(OC)cc2)cc1 (stereo not drawn)
inactive: [1] > 100 µM | [2] > 100 µM | [3] 26.5 µM | [4] > 100 µM | [5] > 100 µM | [6] > 100 µM | [7] 55.2 µM | [8] > 100 µM | [9] > 100 µM | [10] > 100 µM | [11] > 100 µM | [12] > 100 µM | [13] > 100 µM | [14] > 100 µM | [15] > 100 µM | [16] 63.2 µM

OCCc1cnco1
inactive: [1] > 100 µM | [2] > 100 µM | [3] > 100 µM | [4] > 100 µM | [6] > 100 µM | [7] > 100 µM | [8] > 100 µM | [9] > 100 µM | [10] > 100 µM | [11] > 100 µM | [12] > 100 µM | [13] > 100 µM | [15] > 100 µM | [17] > 100 µM

Cn1nc(-c2ccccc2)c(C(=O)/C=C/c2ccc(Cl)cc2)c(N2CCOCC2)c1=O
inactive: [1] 3.48 µM | [2] 5.7 µM | [6] 3.44 µM | [7] 4.98 µM | [8] 1.99 µM | [9] 2.34 µM | [10] 5.51 µM | [11] 7.94 µM | [12] 4.22 µM | [13] 2.45 µM | [15] 4.12 µM | [17] 2.34 µM

CC(N)Cc1ccc(C(=O)Cl)cc1 (stereo not drawn)
inactive: [1] > 100 µM | [2] > 100 µM | [3] > 100 µM | [4] > 100 µM | [5] > 100 µM | [6] > 100 µM | [7] > 100 µM | [8] > 100 µM | [9] > 100 µM | [10] > 100 µM | [11] > 100 µM | [12] > 100 µM | [13] > 100 µM | [14] > 100 µM | [15] > 100 µM | [16] > 100 µM | [17] > 100 µM

Nc1ccn(CCOC(=O)c2ccccc2)c(=O)n1
inactive: [1] > 100 µM | [2] > 100 µM | [3] > 100 µM | [5] > 100 µM | [6] > 100 µM | [7] > 100 µM | [8] > 100 µM | [9] > 100 µM | [10] > 100 µM | [11] > 100 µM | [12] > 100 µM | [13] > 100 µM | [14] > 100 µM | [15] > 100 µM | [16] > 100 µM | [17] > 100 µM

N#C/C(=C\c1ccccc1O)C(N)=O
inactive: [1] 81.7 µM | [2] > 100 µM | [3] 28.1 µM | [4] > 100 µM | [5] 62.1 µM | [6] > 100 µM | [7] > 100 µM | [8] 61.8 µM | [9] 60.8 µM | [10] 53.1 µM | [11] > 100 µM | [12] > 100 µM | [13] 23.6 µM | [14] > 100 µM | [15] 76.2 µM | [16] 50.7 µM | [17] 25.7 µM
